In US20250304700A1, “ANTI-BLOOD DENDRITIC CELL ANTIGEN 2 ANTIBODIES AND USES THEREOF” (Biogen MA Inc., priority 2012, published 2025):
Values joined by “and” are separate entries in the source; they are usually repeats but may differ in a detail not shown here. Equal values may be shown once.

Legend:
[1] = test system: TLR9-induced IFNα production by PBMC; assay: PBMC assay, TLR9-induced IFNα production; format: cell-based, human; settings: 1 or 5 μM CpG-A, 18 hours
Experimental: PBMCs from heparinized venous blood of healthy donors were isolated by discontinuous gradient centrifugation over Ficoll, washed in PBS and re-suspended in complete culture medium (RPMI with 3% FBS). […] The plates were incubated overnight (18 hours) at 37° C., and the supernatants were collected for evaluation in IFNα ELISA assays (PBL InterferonSource). The assays were performed according to the manufacturer's protocol.
pDCs are the major producers of IFN in response to TLR7 and TLR9 stimulation. pDCs can produce thousand-fold more IFN than any other cell type. […] The plates were incubated overnight (18 hours) at 37° C. and 5% CO2. Supernatants were collected for evaluation in IFNα ELISA assays.

[2] = test system: cell surface BDCA2 on pDCs; assay: BIIB059 titration in cynomolgus whole blood, anti-human IgG PE detection; format: binding, cynomolgus monkey; settings: all cynomolgus monkeys
Chain of cell surface BDCA2 on pDCs (as listed by the source): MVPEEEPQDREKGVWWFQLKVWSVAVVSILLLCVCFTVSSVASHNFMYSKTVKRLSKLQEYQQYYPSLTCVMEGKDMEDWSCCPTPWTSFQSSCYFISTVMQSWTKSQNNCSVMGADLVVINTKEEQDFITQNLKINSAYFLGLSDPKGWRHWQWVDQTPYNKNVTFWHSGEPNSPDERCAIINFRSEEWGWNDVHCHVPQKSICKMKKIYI
Experimental: The maximal values were taken from the values at the plateau in each assay (FIGS. 24 and 25).
Whole blood was drawn from twelve cynomolgus monkeys, once a week for three weeks total. […] MFI of PE was calculated with FlowJo software, and EC50 curves were generated in GraphPad Prism software.

BDCA2 receptor on pDCs = assay: BDCA2 and bound BIIB059 on pDC surface after dosing cynomolgus monkeys; format: in vivo, cynomolgus monkey
Chain of BDCA2 receptor on pDCs (as listed by the source): as above
Description: At the same time point (1 hr), some free BDCA2 was observed (13%, 74%, 72% of baseline MFI).
EC10-50-90 curves were generated in GraphPad Prism software using a four-parameter fit.

[3] = test system: Sm/RNP immune complexes-induced cytokines by pDCs; assay: Cytokines from Sm/RNP immune complex stimulated purified pDCs; format: cell-based, human; settings: 10 μg/mL BIIB059, 18 hours
Experimental: Specifically, Sm/RNP immune complexes (IC) were pre-formed by mixing sm-RNP from calf thymus and anti-RNP antibodies purified form sera of SLE patients for 1 h in serum-free medium. pDCs from human healthy donors were isolated using a two-step magnetic bead separation procedure (MACS kit, Miltenyi Biotec). […] The plates containing pDCs were incubated for 18 hours at 37° C. and supernatants collected for use in ELISA or multiplex assays to measure concentrations of inflammatory cytokines and chemokines.

[4] = test system: CD32a on the surface of pDCs; assay: CD32 surface expression on isolated pDCs; format: cell-based, human
Description: Treatment with effector competent isotype control had no effect on CD32 surface levels (FIG. 46).
CD40 is a cell surface protein expressed on pDCs. An anti-CD40 antibody with a fully functional Fc has the ability to engage CD40 and bind CD32 on the surface of pDCs.

BIIB059 on the pDC surface (BDCA2 receptor on pDCs; IV 10 mg/kg or 1 mg/kg, from 1 hour post injection): no BIIB059 was detected on the surface
free BDCA2 (BIIB059-A647 staining) (BDCA2 receptor on pDCs; IV 10 mg/kg or 1 mg/kg, through 38 days, except monkey 5): no free BDCA2
BIIB059 on the pDC surface (BDCA2 receptor on pDCs; SC 0.2 mg/kg, at 1 hour, disappeared by 6 hours): briefly observed on the surface of pDCs
EC10 (ug/mL), Mean (BDCA2 receptor on pDCs; mean of all dosed monkeys): 0.064 µg/mL
EC90 (ug/mL), Mean (BDCA2 receptor on pDCs; mean of all dosed monkeys): 0.359 µg/mL
Substance: BIIB059: humanized IgG1 anti-BDCA2 antibody, mature heavy chain SEQ ID NO: 4 and mature light chain SEQ ID NO: 3
average IC50, inhibition of TLR9-induced IFNα production ([1]; PBMC from SLE patients): 0.03 ± 0.01 µg/mL
average IC50, inhibition of TLR9-induced IFNα production ([1]; PBMC from healthy donors): 0.04 ± 0.05 µg/mL
concentration that saturates BDCA2 receptor binding [2]: 10 µg/mL
EC10 (ug/mL), internalization of BDCA2 (BDCA2 receptor on pDCs; IV 10 mg/kg, monkeys 3, 8, 10, 10 mg/kg): 0.100 µg/mL and 0.095 µg/mL and 0.114 µg/mL
free BDCA2 receptor over time (BDCA2 receptor on pDCs; SC 0.2 mg/kg): no free BDCA2 receptor was detected until day 14
Sm/RNP immune complexes-induced IFNα, TNFα and IL-6 [3]: potently inhibited
chemokines induced by Sm/RNP immune complexes (CCL3, CCL4) [3]: also inhibited
CD32 MFI ([4]; 10 μg/mL, 1 hour at 4° C.): did not decrease the CD32 MFI
CD32 on the cell surface of pDCs ([4]; 16 hours at 37° C.): able to induce the down-modulation of CD32
